Experimental data reported in paper doi:10.1101/423061v1, “Comparative analysis of PknB inhibitors for reactivity and toxicity” (biorxiv, 2018).

Target: PknB (Mycobacterium tuberculosis, UniProt P9WI81)
Assay: ATP Glo kinase assay, GarA as protein substrate
Type: biochemical

Chain of PknB (P9WI81 1-331 limits assumed): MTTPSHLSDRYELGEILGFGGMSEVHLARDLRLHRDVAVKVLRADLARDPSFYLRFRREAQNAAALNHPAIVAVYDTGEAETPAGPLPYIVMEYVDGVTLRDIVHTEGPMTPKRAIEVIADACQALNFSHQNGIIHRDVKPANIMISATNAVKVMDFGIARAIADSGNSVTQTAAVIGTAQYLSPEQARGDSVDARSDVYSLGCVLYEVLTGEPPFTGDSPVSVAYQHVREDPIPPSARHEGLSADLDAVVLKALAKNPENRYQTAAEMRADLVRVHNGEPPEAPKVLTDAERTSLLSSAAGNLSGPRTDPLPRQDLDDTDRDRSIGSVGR

`COC(=O)/C=C/C(=O)c1ccc(OC)cc1` [YH-8, trans-Methyl-4-(4-methoxyphneyl)-4-oxobut-2-enoate] gave an IC50 of 6.6 µM.
